{"source": "patent US10072249B2", "about": "“Method of inducing kidney from pluripotent stem cells” (NATIONAL UNIVERSITY CORPORATION KUMAMOTO UNIVERSITY, priority 2013, dated 2018)", "molecules": {"B1": {"name": "Bmp4: human Bmp4 growth factor (R&D Systems) (protein, UniProt P12644 293-408, looked up)", "Bone morphogenetic protein 4": "SPKHHSQRARKKNKNCRRHSLYVDFSDVGWNDWIVAPPGYQAFYCHGDCPFPLADHLNSTNHAIVQTLVNSVNSSIPKACCVPTELSAISMLYLDEYDKVVLKNYQEMVVEGCGCR"}, "B2": {"name": "activin: human activin A growth factor (R&D Systems) (protein, UniProt P08476 311-426, looked up)", "Inhibin beta A chain": "GLECDGKVNICCKKQFFVSFKDIGWNDWIIAPSGYHANYCEGECPSHIAGTSGSSLSFHSTVINHYRMRGHSPFANLKSCCVPTKLRPMSMLYYDDGQNIIKKDIQNMIVEECGCS", "modifications": "Inhibin beta A chain"}}, "key": {"[1]": {"system": "Osr1-GFP+ cells from the caudal part of E9.5 embryos", "test": "Culture of sorted E9.5 posterior Osr1-GFP+ cell aggregates, then colony-formation assay on Wnt4 feeder cells", "type": "cell-based, mouse", "procedure": "In vitro colony-formation assays were performed as described previously (Osafune et al., 2006). Briefly, progenitor cells were sorted by a FACS Aria II (Becton Dickinson) and plated onto NIH3T3 cells stably expressing Wnt4 at a low density (1,250-10,000 cells/well of 6-well plates). The cells were then cultured in DMEM/F12 containing 5% knockout serum replacement (Invitrogen), 10 μg/ml insulin, 6.7 μg/1 sodium selenite, 5.5 μg/ml transferrin, 1×10^−7 mol/l dexamethasone, 10 mmol/l nicotinamide, 2 mmol/l L-glutamine, 50 μmol/l 2-mercaptoethanol, 5 mmol/l HEPES and penicillin/streptomycin.\nFor embryonic tissue cultures at E8.5, the presomitic regions of 6-10 somite-stage embryos were harvested and T-GFP+ cells were sorted by FACS. The sorted cells were aggregated at 7,000 cells per aggregate in 96-well low-cell-binding plates and cultured in serum-free chemically-defined medium. In the embryonic tissue cultures at E9.5, the posterior regions from the 23rd somite region of 22-26 somite-stage embryos were harvested and Osr1-GFP+ or Wt1-GFP+ cells were sorted by FACS. The sorted cells were aggregated at 10,000 cells per aggregate in 96-well low-cell-binding plates and cultured in serum-free chemically-defined medium.\nInduced cell aggregates from embryonic tissues or ES cells were dissociated by incubation with 0.25% trypsin for 5 min. After blocking in normal mouse serum (Thermo Scientific), cell surface marker staining was carried out in buffer comprising 1% bovine serum albumin, 1×HBSS and 0.035% NaHCO3. Data were analyzed with FlowJo software (Treestar).\nRNA was isolated using an RNeasy Plus Micro Kit (Qiagen), and then reverse-transcribed with random primers and Superscript III (Invitrogen). Quantitative PCR was carried out using a Real-Time PCR System (Applied Biosystems) and Thunderbird SYBR qPCR Mix (Toyobo). All samples were normalized by the β-actin expression using the relative standard curve method.\nTo test the hypothesis, Osr1-GFP+ cells from the caudal part of E9.5 embryos were sorted, and were plated into low-cell-binding plates in the presence of the Rho kinase inhibitor Y27632, which supports cell survival. The cells spontaneously re-aggregated and formed spheres within 24 h."}, "Osr1-GFP ES cell line": {"system": "Osr1-GFP ES cell line", "test": "Induction of metanephric nephron progenitors from mouse ES cells", "type": "cell-based", "details": "low concentration, 24 h after 2 days of EB formation", "procedure": "Mouse ES cells (Osr1-GFP) were maintained on murine embryonic fibroblasts in DMEM (Invitrogen) supplemented with 15% fetal calf serum, 0.1 mM 2-mercaptoethanol (Nacalai Tesque) and 1,000 U/ml leukemia inhibitory factor (ESGRO). EB3-DsRed cells, gifts from Dr. Hitoshi Niwa (CDB RIKEN), were maintained as reported previously (Usui et al., Am. J. Pathol. 180, 2417-2426, 2012). Before the initiation of differentiation, the ES cells were passaged once onto feeder cell-free gelatin-coated dishes in DMEM (Invitrogen) supplemented with 15% fetal bovine serum, 0.1 mM 2-mercaptoethanol, 1,000 U/ml leukemia inhibitory factor, 3 μM CHIR99021 (Wako) and 1 μM PD0325901 (Wako). ES cell differentiation was carried out in serum-free medium as follows. […]\nRNA was isolated using an RNeasy Plus Micro Kit (Qiagen), and then reverse-transcribed with random primers and Superscript III (Invitrogen). Quantitative PCR was carried out using a Real-Time PCR System (Applied Biosystems) and Thunderbird SYBR qPCR Mix (Toyobo). […]"}, "[2]": {"details": "exogenous addition to aggregate culture"}}, "data": [{"molecule": "Cc1c[nH]c(-c2cnc(NCCNc3ccc(C#N)cn3)nc2-c2ccc(Cl)cc2Cl)n1", "note": "[CHIR99021, 6-[[2-[[4-(2,4-dichlorophenyl)-5-(4-methyl-1H-imidazol-2-yl)-2-pyrimidinyl]amino]ethyl]amino]nicotinonitrile]", "values": [{"measurement": "induction of colony-forming progenitors and nephric gene expressions", "setting": "[1]; high concentrations, 3 or 10 μM", "value": "inhibitory"}, {"measurement": "colony formation", "setting": "[1]; low concentration, 1 μM", "value": "slightly improved"}]}, {"molecule": "C[C@@H](N)[C@H]1CC[C@H](C(=O)Nc2ccncc2)CC1", "note": "[Y27632]", "values": [{"measurement": "expressions of Pax2, Six2 and Gdnf compared with the starting point", "setting": "[1]; 48 h of culture of aggregates in low-cell-binding plates", "value": "more than 10 fold"}, {"measurement": "Osr1+/Itga8+/Pdgfra− population (FACS)", "setting": "[1]; cultured aggregates", "value": "10.0±0.01 % of the total cells"}]}, {"molecule": "B1", "values": [{"measurement": "induction of colony-forming progenitors and nephric gene expressions", "setting": "[1]; [2]", "value": "inhibitory"}]}, {"molecule": "B2", "values": [{"measurement": "induction of colony-forming progenitors and nephric gene expressions", "setting": "[1]; [2]", "value": "inhibitory"}, {"measurement": "expression of the epiblast marker Fgf5", "setting": "Osr1-GFP ES cell line", "value": "induced transient expression"}]}]}
